Measured values as given in patent publication US20160061816A1, “SCREENING METHOD FOR ION CHANNEL MODULATORS USING MUTATED BKCA CHANNEL” (GWANGJU INSTITUTE OF SCIENCE AND TECHNOLOGY, priority 2013, published 2016).

How the values were obtained:
[1] = target: T1, G733D/N736K BKCa channel (Homo sapiens, UniProt Q12791, G856D/N859K); test: FluxOR fluorescence-based assay, cells stably expressing G733D/N736K BKCa channel; type: cell-based
T1 construct: NO: 4; expressed in transfected cells
Protocol: (§1) Commercially available FluxOR™ Potassium Ion Channel Assay (Invitrogen) was used in order to perform a fluorescence-based assay for BKCa channels. AD-293 cells stably expressing WT and G733D/N736K BKCa channels were plated onto a poly-D-lysine (Sigma)-coated 96-well microplate (Corning) (5×10^4 cells per well). Cells were pre-cultured with a test compound, CTBIC (4-chloro-7-(trifluoromethyl)-10H-benzofuro[3,2-b]indole-1-carboxylic acid) for 30 minutes in advance of the recording. The fluorescence signal was measured using a Synergy™ H1 Hybrid Multi-Mode Microplate Reader (BioTek Instrument, Inc., Winnoski, Vt.) with Gen5 software. […] The microplate was read every 15 seconds in order to identify whether or not the system of the present invention is suitable for high throughput screening using a standard fluorimeter.
(§2) Finally, the present inventors performed experiments to determine whether cells stably expressing hyperactive BKCa channels are suitable for high-throughput screening for channel activators. […] When cells reached 80% to 90% confluence, FluxOR™ signals were measured. Further, the fluorescence signals from parental AD-293 cell lines were measured as a control group. Prior to reading out the fluorescence, the cells were pre-treated with 10 μM CTBIC or DMSO (control group). […] Relative fluorescence unit (RFU) values increased up to 2.3-fold as compared to basal responses.

[2] = target: T2, WT BKCa channel (Homo sapiens, UniProt Q12791); test: Patch clamp macroscopic current recording, WT BKCa channel; type: cell-based
T2 construct: expressed in transfected cells
Protocol: Macroscopic current recordings were performed using a gigaohm seal patch clamp method. Patch pipettes were made from borosilicate glass (WPI, Sarasota, Fla.), and then fire polished with resistance of 3-5 MΩ. The channel currents were amplified using Axopatch 200B amplifier (Axon Instruments, Foster City, Calif.), low-pass filtered at 1 or 2 kHz using a four-pole Bessel filter, and then digitized at a rate of 10 or 20 points/ms using a Digidata 1200 A digitizer (Axon Instruments). The ionic currents of BKCa channels were activated by voltage-clamped pulses delivered from a holding potential of −100 mV to membrane potentials ranging from −80 mV to 200 mV in increments of 10 mV. The intracellular and extracellular solutions contained, unless otherwise specified, 116 mM KOH (Sigma), 4 mM KCl (Sigma), 10 mM HEPES and 5 mM EGTA (Sigma), and were titrated to pH 7.2 using MES (2-(N-morpholino)ethanesulfonic acid). In order to precisely measure [Ca^2+]i, the appropriate amount of total […] to be added to the intracellular solution was calculated using MaxChelator software (Patton, et al., 2004; http://maxchelator.stanford.edu/). […]

[3] = target: T2, WT BKCa channel; test: FluxOR fluorescence-based assay, cells stably expressing WT BKCa channel; conditions: 10 μM CTBIC, stable cell lines expressing WT channel, FIG. 5b
Protocol: as §1, §2

[4] = target: T1, G733D/N736K BKCa channel; test: Patch clamp macroscopic current recording, G733D/N736K BKCa channel; type: cell-based
Protocol: Macroscopic current recordings were performed using a gigaohm seal patch clamp method. Patch pipettes were made from borosilicate glass (WPI, Sarasota, Fla.), and then fire polished with resistance of 3-5 MΩ. The channel currents were amplified using Axopatch 200B amplifier (Axon Instruments, Foster City, Calif.), low-pass filtered at 1 or 2 kHz using a four-pole Bessel filter, and then digitized at a rate of 10 or 20 points/ms using a Digidata 1200 A digitizer (Axon Instruments). The ionic currents of BKCa channels were activated by voltage-clamped pulses delivered from a holding potential of −100 mV to membrane potentials ranging from −80 mV to 200 mV in increments of 10 mV. The intracellular and extracellular solutions contained, unless otherwise specified, 116 mM KOH (Sigma), 4 mM KCl (Sigma), 10 mM HEPES and 5 mM EGTA (Sigma), and were titrated to pH 7.2 using MES (2-(N-morpholino)ethanesulfonic acid). In order to precisely measure [Ca^2+]i, the appropriate amount of total […] to be added to the intracellular solution was calculated using MaxChelator software (Patton, et al., 2004; http://maxchelator.stanford.edu/).
In order to evaluate the suitability of cell lines stably expressing G733D/N736K channels as a platform for identification of BKCa channel modulators, the function of a strong BKCa channel activator, CTBIC, which potentiates mutated channel activity, was investigated (Gormemis, et al., 2005; Lee, et al., 2012). […] The relative conductance (G/Gmax) was obtained by normalizing the tail currents (evoked by a step hyperpolarization to −100 mV from a given voltage) to the maximum tail current. The G/Gmax values at 0 μM and 10 μM CTBIC were fitted using a Boltzmann function.

[5] = system: parental AD-293 cells; test: FluxOR fluorescence-based assay, parental cell line (control); conditions: 10 μM CTBIC, FIG. 5a
Protocol: as §1, §2

T1 sequence (Q12791 66-1178 isoform Q12791-5 G798D/N801K): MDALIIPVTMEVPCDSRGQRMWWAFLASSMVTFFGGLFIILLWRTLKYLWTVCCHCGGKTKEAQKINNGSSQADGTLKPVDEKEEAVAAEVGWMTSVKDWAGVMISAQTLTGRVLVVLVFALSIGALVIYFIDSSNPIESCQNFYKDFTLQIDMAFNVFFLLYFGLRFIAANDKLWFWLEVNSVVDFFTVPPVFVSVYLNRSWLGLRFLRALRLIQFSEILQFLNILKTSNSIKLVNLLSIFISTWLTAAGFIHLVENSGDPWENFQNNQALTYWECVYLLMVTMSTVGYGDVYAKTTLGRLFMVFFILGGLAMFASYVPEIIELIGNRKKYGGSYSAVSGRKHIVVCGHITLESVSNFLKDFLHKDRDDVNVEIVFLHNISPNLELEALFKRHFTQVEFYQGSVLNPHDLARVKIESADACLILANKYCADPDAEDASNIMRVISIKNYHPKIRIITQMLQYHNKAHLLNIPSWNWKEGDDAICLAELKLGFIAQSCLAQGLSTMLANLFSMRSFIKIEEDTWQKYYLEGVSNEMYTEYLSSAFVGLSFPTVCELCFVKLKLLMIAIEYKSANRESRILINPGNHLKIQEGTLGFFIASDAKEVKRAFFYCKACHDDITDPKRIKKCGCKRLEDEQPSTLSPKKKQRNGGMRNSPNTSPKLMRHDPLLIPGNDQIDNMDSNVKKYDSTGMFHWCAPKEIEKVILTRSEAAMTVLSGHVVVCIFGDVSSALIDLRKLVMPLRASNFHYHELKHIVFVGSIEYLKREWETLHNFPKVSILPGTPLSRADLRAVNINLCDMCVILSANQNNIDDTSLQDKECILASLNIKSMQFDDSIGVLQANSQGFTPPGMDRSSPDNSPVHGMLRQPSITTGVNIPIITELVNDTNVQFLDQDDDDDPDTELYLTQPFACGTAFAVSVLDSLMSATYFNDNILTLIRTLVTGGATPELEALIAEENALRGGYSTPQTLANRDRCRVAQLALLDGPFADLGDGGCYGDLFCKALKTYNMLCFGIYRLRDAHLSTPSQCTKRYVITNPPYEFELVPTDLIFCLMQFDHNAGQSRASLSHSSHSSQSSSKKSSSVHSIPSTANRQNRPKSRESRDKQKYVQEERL
T2 sequence (Q12791 1-1178 isoform Q12791-5): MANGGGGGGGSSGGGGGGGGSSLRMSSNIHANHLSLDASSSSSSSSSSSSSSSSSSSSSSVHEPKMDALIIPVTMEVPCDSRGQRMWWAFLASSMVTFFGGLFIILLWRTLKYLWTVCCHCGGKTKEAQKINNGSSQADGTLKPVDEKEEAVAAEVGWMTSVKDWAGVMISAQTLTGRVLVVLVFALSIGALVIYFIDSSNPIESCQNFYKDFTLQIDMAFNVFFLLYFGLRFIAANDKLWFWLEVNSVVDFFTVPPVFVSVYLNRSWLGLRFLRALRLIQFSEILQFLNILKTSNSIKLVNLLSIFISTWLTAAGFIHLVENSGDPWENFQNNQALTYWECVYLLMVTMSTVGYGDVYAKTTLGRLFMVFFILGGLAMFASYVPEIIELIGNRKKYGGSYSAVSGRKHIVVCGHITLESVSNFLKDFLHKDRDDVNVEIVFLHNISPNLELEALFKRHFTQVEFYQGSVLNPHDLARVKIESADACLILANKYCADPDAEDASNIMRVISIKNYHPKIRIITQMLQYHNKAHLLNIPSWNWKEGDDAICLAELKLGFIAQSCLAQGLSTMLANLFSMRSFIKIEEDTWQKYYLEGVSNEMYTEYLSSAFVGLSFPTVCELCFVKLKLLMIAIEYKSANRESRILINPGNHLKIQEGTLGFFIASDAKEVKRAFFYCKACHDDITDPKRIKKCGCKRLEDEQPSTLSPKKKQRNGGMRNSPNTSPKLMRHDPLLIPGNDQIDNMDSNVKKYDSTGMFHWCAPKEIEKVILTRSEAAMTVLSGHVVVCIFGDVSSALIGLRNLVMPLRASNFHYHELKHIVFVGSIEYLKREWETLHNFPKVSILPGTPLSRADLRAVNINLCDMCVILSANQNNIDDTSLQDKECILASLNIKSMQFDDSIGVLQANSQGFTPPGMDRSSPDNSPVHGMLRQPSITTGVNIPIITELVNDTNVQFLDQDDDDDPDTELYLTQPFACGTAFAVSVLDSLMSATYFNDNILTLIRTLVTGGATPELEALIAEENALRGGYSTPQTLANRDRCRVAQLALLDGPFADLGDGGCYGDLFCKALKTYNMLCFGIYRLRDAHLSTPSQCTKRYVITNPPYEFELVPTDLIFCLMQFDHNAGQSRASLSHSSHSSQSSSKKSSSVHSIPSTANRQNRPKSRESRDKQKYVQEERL

Relative fluorescence unit (RFU) increase as compared to basal responses ([1]; 10 μM CTBIC, 30 min pre-treatment, AD-293 cells stably expressing G733D/N736K channel, stimulus buffer 10 mM free K+): up to 2.3 fold | increase in fluorescence signals ([1]; stimulus with 10 μM CTBIC, FIG. 5c): ~2.3 times | effect on ionic current ([2]; 10 μM CTBIC added to membrane patch, 100 nM [Ca2+]i, FIG. 4a): strongly potentiated | shift of G-V curve ([2]; 10 μM CTBIC, FIG. 4c): shifted in the negative direction | fluorescence increase [3]: about 1.3 fold | effect on ionic current ([4]; 10 μM CTBIC added to membrane patch, 100 nM [Ca2+]i, FIG. 4b): strongly potentiated | shift of G-V curve ([4]; 10 μM CTBIC, FIG. 4c): shifted in the negative direction
Structure (SMILES): O=C(O)c1ccc(Cl)c2c1[nH]c1c3ccc(C(F)(F)F)cc3oc12 [CTBIC, 4-chloro-7-(trifluoromethyl)-10H-benzofuro[3,2-b]indole-1-carboxylic acid]
shift in V1/2 value (V1/2 free vs. V1/2 10 μM) ([4]; 10 μM CTBIC, compared with WT channel, FIG. 4d): much larger than the shift for the WT channel | impact on the induced fluorescence increase [5]: minimum impact
